Literature values in patent US10525099B2, “Orally disintegrating solid pharmaceutical dosage unit containing a partus control substance” (Oxytone Bioscience B.V., priority 2014, dated 2020).
Bridge positions count the residues as written; N and C are the ends. Square brackets hold non-standard residues; d marks the D form. Peptide text beside a SMILES is read from it. Orn = NCCC[C@H](N)C(=O)O; Mpa = O=C(O)CCS

Experiments:
[1] = in vivo
[2] = lyophilized

SMILES | half-life in the blood [1] | time stable at room temperature [2] [weeks]
CC[C@H](C)[C@@H]1NC(=O)[C@H](Cc2ccc(O)cc2)NC(=O)[C@@H](N)CSSC[C@@H](C(=O)N2CCC[C@H]2C(=O)N[C@@H](CC(C)C)C(=O)NCC(N)=O)NC(=O)[C@H](CC(N)=O)NC(=O)[C@H](CCC(N)=O)NC1=O [Oxytocin, cysteine-tyrosine-isoleucine-glutamine-asparagine-cysteine-proline-leucine-glycine-amide] | about three | 
CCOc1ccc(C[C@H]2NC(=O)CCSSC[C@@H](C(=O)N3CCC[C@H]3C(=O)N[C@@H](CCCN)C(=O)NCC(N)=O)NC(=O)[C@H](CC(N)=O)NC(=O)[C@H]([C@@H](C)O)NC(=O)[C@H]([C@@H](C)CC)NC2=O)cc1 [atosiban] ([Mpa][dY](Et)ITNCP[Orn]G-NH2; disulfide 1-6) |  | 3
